This test concerns SK-MEL-5 TRPM1-promoter luciferase reporter, 24 h. In words: reducers of TRPM1 reporter luminescence, concentration series – cell-based, SK-MEL-5, cherry-picked, set 4, MITF inhibitor project, dose response (AID 493102).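 Also: actives lower the luciferase signal so the potency reflects inhibition of reporter expression.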

For orientation: AC50 means the midpoint of the concentration-response curve, whichever way the signal moves. Consider `O=C(COC(=O)c1ccccc1C(=O)c1ccc(Cl)c([N+](=O)[O-])c1)NC1CC1`, for which the AC50 was 8.92 µM.
On to `O=C(CCl)N(c1ccccc1)c1c[nH]c2ccccc12`, for which the AC50 is 5.08 µM.
As to `N#CC1=C(c2ccccc2)/C(=C/c2ccccc2)OC1=O`, the AC50 is 4.25 µM.
Under `COc1ccccc1NS(=O)(=O)c1cccc(C(=O)N/N=C/c2ccc([N+](=O)[O-])o2)c1` stands 4.3 µM.
With `CCCNC(=O)COC(=O)c1ccccc1C(=O)c1ccc(Cl)c([N+](=O)[O-])c1` the figure was 8.34 µM; with `O=C(CNc1cccc2ccccc12)N/N=C/c1ccc([N+](=O)[O-])o1`, 5.04 µM.
As to `CC(=O)Nc1ccc(S(=O)(=O)N2CCn3cccc3C2C)cc1` (configuration not stated), the AC50 is 28.7 µM.
Turning to `Cc1ccc(NC2=C(Cl)C(=O)c3ccccc3C2=O)cc1`, the AC50 was 5.25 µM.
Under `COC(=O)C1=C(C)N(Cc2ccccc2)C(=NCC(C)C)N[C@H]1c1cccc(C(F)(F)F)c1` stands 15 µM; under `CC1CCN(CC2C(=O)O[C@@H]3C[C@@]4(C)CCC[C@H](C)C4=C[C@H]23)CC(C)(C)C1` (some centres not stated), 16.1 µM.
With `CCN1CCN(c2ccc(Nc3ccnc4ccccc34)cc2)CC1` the figure was 12.3 µM; with `CC(C)(C)c1ccc(/C=N/Nc2ccc(C(=O)O)cc2)cc1`, 6.03 µM.
Under `CC(=O)CSc1ccc(-c2nc3cc(C)c(C)cc3[nH]2)cn1` stands 3.67 µM; under `O=C(/C=C/c1ccc([N+](=O)[O-])s1)N1CCCC1`, 9.86 µM; under `O=C(NC1=NCCS1)C1COc2ccccc2O1` (configuration not stated), 1.7 µM.
In the case of `COc1ccc(/C=C2\SC(=S)N(CCCC(=O)NNC(=O)c3ccccc3O)C2=O)cc1`, the AC50 is 1.38 µM.
Turning to `O=C(N/N=C/c1ccccc1Cl)c1n[nH]c2c1CCCC2`, the AC50 was 7.97 µM.
`O=C(NCC1CCCCC1)C1(CC2CC(c3cccc(Br)c3)=NO2)CCNCC1` (configuration not stated): the AC50 was 18.1 µM.
Turning to `CN(C)S(=O)(=O)c1cccc(NC(=O)CSc2nc3c(cc2C#N)C(=O)CC(C)(C)C3)c1`, the AC50 was 9.02 µM.
Under `COc1cccc(C(=O)Nc2ccc3c(cc2=O)[C@@H](NC(C)=O)CCc2cc(OC)c(OC)c(OC)c2-3)c1` stands 8.43 µM.
With `C=CCn1c(C)cc(C2=NNC(=NCC)SC2)c1C` the figure was 0.056 µM; with `COC1=C(c2ccccc2)C(=O)c2ccccc2C1=O`, 9.05 µM.
Consider `CCCCn1c(=N)n(CCOc2ccc(C)cc2)c2ccccc21`, for which the half-maximal activity concentration (AC50) is 11.3 µM.
With `O=C(COc1ccccc1)N/N=C/c1ccc([N+](=O)[O-])o1` the figure was 21.5 µM; with `CCCCN(CC)CCCNC(=O)c1cc2c(=O)n(CC)c3ccccc3c2s1`, 21.6 µM.
Under `CS(=O)(=O)c1ccc(C(=O)OCC(=O)NCc2cccs2)cc1[N+](=O)[O-]` stands 11.7 µM; under `COc1ccccc1OCC(=O)N/N=C/C=C/c1ccc([N+](=O)[O-])o1`, 7.39 µM.
Under `NCCCNc1nc(N)c([N+](=O)[O-])c(NC2CCCCC2)n1` stands 6.36 µM.
For the molecule `Cc1ccc(NC(=O)c2ccc([N+](=O)[O-])s2)cc1S(=O)(=O)N1CCOCC1`, the AC50 is 3.78 µM.
Under `COc1cc(NC(=O)c2ccc([N+](=O)[O-])o2)ccc1NC(=O)c1cccs1` stands 8.46 µM.
Under `O=C(CCl)Nc1cccc(S(=O)(=O)N2CCCCCC2)c1` stands 11.8 µM; under `CC1=C(CC(=O)c2ccccc2)C(=O)c2ccccc2C1=O`, 7.15 µM.
Under `Cn1cc([N+](=O)[O-])c(C(=O)Nc2nc(-c3ccc(Cl)cc3)cs2)n1` stands 10.5 µM; under `C/C(=N\NC(=O)COc1ccccc1-c1ccccc1)c1ccccn1`, 4.58 µM.
In the case of `COc1cccc2sc(N(CCCN(C)C)C(=O)C(c3ccccc3)c3ccccc3)nc12`, the AC50 is 15.1 µM.
With `O=C(N/N=C/c1ccc([N+](=O)[O-])s1)c1cccc(Br)c1` the figure was 4.83 µM; with `CC1CC(C)C[N+](=C2C=C(N3CCCC3)CC(C)(C)C2)C1` (configuration not stated), 2.24 µM; with `N#C/C(=C\C=C\c1ccccc1[N+](=O)[O-])C(=O)NC1CCCCC1`, 7.8 µM.
Take `COc1cc(OC)cc(C(=O)N[C@H](C(=O)Nc2nc3ccccc3[nH]2)C(C)C)c1`: the AC50 was 2.44 µM.
With `COc1cc2c(c(OC)c1OC)-c1ccc(OC)c(=O)cc1C(NC(C)=O)CC2` (configuration not stated) the figure was 0.056 µM; with `CC(C)n1c(O)c(C2c3cc(Cl)ccc3Oc3[nH]c(=O)n(C(C)C)c(=O)c32)c(=O)[nH]c1=O` (configuration not stated), 5.39 µM.
`CC(=NNC(=S)N1CCN(c2ccccn2)CC1)c1nccs1`: the AC50 was 0.681 µM.
Under `O=C(CCl)Nc1cccc(-c2cnc3ccccc3n2)c1` stands 4.02 µM; under `Nc1c(N(CCC2=CCCCC2)C(=O)COc2ccc([N+](=O)[O-])cc2)c(=O)[nH]c(=O)n1Cc1ccccc1`, 14.2 µM; under `O=C(Nc1nc(-c2ccccn2)cs1)c1ccccc1-n1cnnn1`, 6.96 µM.
With `CCOC(=O)c1ccc(NC2=CC(=O)C(=O)c3ccccc32)cc1` the figure was 4.3 µM; with `CC1CCCCC1NC(=O)/C(C#N)=C/c1ccccc1F` (configuration not stated), 14.4 µM.
For the molecule `CC(/C=C1\SC(=O)N(CCCC(=O)O)C1=O)=C\c1ccccc1`, the AC50 is 2.36 µM.
Under `O=C(Cn1ncc(Cl)c(Cl)c1=O)N1CCOCC1` stands 9.82 µM.
As to `Cc1ccc(-c2cn3cc(C)ccc3n2)cc1`, the AC50 is 2.03 µM.
With `Cc1oc(-c2ccc(Cl)cc2)nc1CN1CCC(C(=O)NCCCN2CCCC(C)C2)CC1` (configuration not stated) the figure was 13.2 µM; with `C=CCN1C(=O)/C(=C/c2cc(C)n(-c3cccnc3)c2C)C(=O)NC1=S`, 16.8 µM; with `O=C(NCc1ccccc1)C(=O)Nc1cccc(C(=O)O)c1`, 4.85 µM.
Take `COc1ccc(CNCCC(c2ccc(F)cc2)c2ccc(OC)cc2)cc1` (configuration not stated): the AC50 is 9.89 µM.
With `Cc1cc(NC(=O)c2ccc([N+](=O)[O-])o2)ccc1NC(=O)c1ccco1` the figure was 7.8 µM; with `COc1cc(/C=C/C(=O)N2CCC=CC2=O)cc(OC)c1OC`, 7.4 µM; with `O=c1c2ccccc2nc(/C=C/c2ccc([N+](=O)[O-])o2)n1-c1ccc(O)cc1`, 4.45 µM.
Under `Clc1cccc(-c2nc(-c3ccccn3)no2)c1` stands 5.92 µM; under `Cc1ccc(N2C(=O)NC(=O)/C(=C/C=C/c3ccco3)C2=O)cc1`, 5.97 µM.
Turning to `CN(C)CCNc1ccc2nnn3c4ccc(O)cc4c(=O)c1c23`, the AC50 is 4.73 µM.
Under `CC(=O)Nc1ccc(Nc2c3ccccc3nc3ccccc23)cc1` stands 4.9 µM; under `Cc1ccc(-c2nnc(SCC(=O)Nc3ccccc3F)o2)cc1`, 2.3 µM; under `COc1cc(SC)ccc1C(=O)Nc1ncc(C)s1`, 3.65 µM.
Consider `C[C@H]1CCC[C@]2(C)C[C@H]3OC(=O)C(CN4CCCCCC4)[C@H]3C=C12` (some centres not stated), for which the AC50 is 13.9 µM.
As to `CCN(CC)S(=O)(=O)c1cccc(C(=O)N/N=C(\C)c2ccc(O)cc2O)c1`, the AC50 is 3.74 µM.
`CN1C(=O)/C(=C/c2cccn2-c2ccc3ccccc3c2)C(=O)NC1=S`: the AC50 was 9.42 µM.
With `CC1(C)CC(NC(=O)c2ccc(Cl)c(S(=O)(=O)N(Cc3ccccc3)c3ccccc3)c2)CC(C)(C)N1`, the AC50 was 10.3 µM.
For the molecule `COc1ccc(CCn2c(=S)[nH]c3cc(C(=O)NCc4ccco4)ccc3c2=O)cc1OC`, the AC50 is 17.7 µM.
Under `O=C1c2cc([N+](=O)[O-])cc3cc([N+](=O)[O-])cc(c23)C(=O)N1c1ccccn1` stands 7.92 µM; under `C/C(=N\NC(=O)C(c1ccccc1)c1ccccc1)c1ccccn1`, 5.96 µM.
Under `CN1CCC(N(C)C(=O)/C=C/c2cn(-c3ccccc3)nc2-c2cccs2)CC1` stands 9.82 µM.
With `N#C/C(=C(/O)CCl)c1nc2ccccc2[nH]1` the figure was 4.6 µM.
For `Nc1nc2n[nH]nc2c(=O)[nH]1`, the AC50 is 0.875 µM.
With `O=C(CCl)Nc1cn(-c2ccccc2)nc1-c1ccccc1` the figure was 14.5 µM.
Under `CCOC(=O)c1ccc2c(c1)n(CC)c(/C=C/N(C)c1ccccc1)[n+]2CC` stands 3.24 µM; under `Cn1c(SC2=CS(=O)(=O)c3ccccc32)nc2ccccc21`, 6.72 µM; under `CC(=O)c1ccc(S(=O)(=O)N2CCN(C(=O)/C=C/c3ccc4ccccc4n3)CC2)cc1`, 12 µM.
Under `COc1ccc2c(C)nc(Nc3nc(-c4ccccc4)cc(=O)[nH]3)nc2c1` stands 2.91 µM.
On to `O=C1NC(=O)C(=Cc2ccc(-c3cc(Cl)ccc3[N+](=O)[O-])o2)C(=O)N1`, for which the AC50 was 17.2 µM.
Under `COc1cc(CNC2CCCC2)cc(Cl)c1OCc1ccccc1Cl` stands 17.7 µM; under `COc1ccccc1N(C(=O)CCl)c1cn(C(C)=O)c2ccccc12`, 8.82 µM; under `N#Cc1c(NC(=O)CSc2ncn[nH]2)sc2c1CCCC2`, 0.599 µM.
With `Cc1ccc(NC(=O)Cn2ncc(Cl)c(Cl)c2=O)cc1S(=O)(=O)N1CCCCC1` the figure was 13.7 µM.
In the case of `CCOC(=O)c1ccc(NC(=O)c2ccc(C)c(S(=O)(=O)N3CCOCC3)c2)cc1`, the AC50 is 5.36 µM.
With `O=C(Nc1ccc2nc3n(c(=O)c2c1)CCCC3)c1cc([N+](=O)[O-])ccc1F` the figure was 11.5 µM; with `Oc1ccc(CNc2ccccc2F)c2cccnc12`, 15.1 µM; with `CCN(Cc1ccccc1)c1ccc(/C=N/N=C(N)N)cc1`, 6.37 µM.
Consider `Nc1ccc(-c2nc3c(Cl)cc(N)cc3[nH]2)cc1`, for which the AC50 is 3.76 µM.
Under `C=C1CCC[C@]2(C)C[C@H]3OC(=O)C(CN4CCCCC4CO)[C@H]3CC12` (some centres not stated) stands 11 µM; under `CN(CCC#N)C(=O)COC(=O)c1ccccc1C(=O)c1ccc(Cl)c([N+](=O)[O-])c1`, 10.9 µM.
With `Cc1ccc2c(c1)Oc1ccc(NC(=O)CCl)cc1C(=O)N2`, the AC50 is 10.1 µM.
Take `COc1ccc(C(=O)NC(=O)Nc2cc(C)ccn2)cc1`: the AC50 is 4.96 µM.
Consider `COCCn1c(C)cc(C(=O)COC(=O)c2ccccc2Br)c1C`, for which the AC50 was 1.14 µM.
Take `Cc1cccc2sc(N(CCCN(C)C)C(=O)c3nc4ccccc4s3)nc12`: the AC50 was 10.9 µM.
Under `O=C(NC1CCCC(C(F)(F)F)C1)c1ccc([N+](=O)[O-])o1` (configuration not stated) stands 11.2 µM; under `OCC1OC(n2cnc3c(NCc4ccco4)ncnc32)C(O)C1O` (configuration not stated), 3.88 µM; under `OCCNc1c2ccccc2nc2ccccc12`, 7.28 µM.

Source of the values: PubChem BioAssay AID493102 (Broad Institute, 2011).
